Here are results for 40 compounds from ChEMBL document CHEMBL3507680, “University of Dundee, Gates Library screen for HepG2 cell viability”.

SMILES strings stand for the structures.

The data set can be described thus: Human HepG2 cell viability assay in 384 well format. The arrangement: dose 125 nL, time 70.5 hour; concentration not given beside the values. Particulars: HepG2 cells, read-out: Inhibition. It is filed as toxicity, cell-based.
As for `CCS(=O)(=O)CCNC1CCN(c2nc3ccc(Cl)cc3s2)CC1`, the cytotoxicity at 70.5 h came to 4.49%.
As to `O=C(Cn1c(=O)oc2ccccc21)NCC(O)c1ccc2c(c1)CCO2` (stereo not given), the cytotoxicity at 70.5 h was -2.64%.
As to `CN(Cc1noc(C(C)(C)C)n1)C1CCCN(c2cccnn2)C1` (stereo not given), the cytotoxicity at 70.5 h worked out at 44.8%.
For `c1cncc(-c2nccc(CN3CCCC3)n2)c1`, the cytotoxicity at 70.5 h was 3.79%.
As for `CS(=O)(=O)c1ccc(O[C@H]2COCCN(Cc3ccncc3)C2)cc1`, the cytotoxicity at 70.5 h was -6.23%.
As for `CCCn1[nH]cc/c1=N\C(=O)CN1CCc2cnc(CC)nc2C1`, the cytotoxicity at 70.5 h is 2.85%.
Regarding `Cc1cccc(CSc2nnc(C)n2CC(N)=O)c1`, the cytotoxicity at 70.5 h is -91.2%.
`CC(C)c1nc2n(n1)CC(NCc1nnnn1C1CC1)CC2` (stereo not given): the cytotoxicity at 70.5 h is -5.21%.
In the case of `CC(=O)N1CC[C@H]2CC(=O)N(CCc3c[nH]cn3)CC[C@H]2C1`, the cytotoxicity at 70.5 h is -2.6%.
Regarding `CCCn1nccc1C(=O)N1CCCN(CCCc2ccccc2)CC1`, the cytotoxicity at 70.5 h was -7.2%.
For `CN(C)C(=O)N1CCN(c2ccc3ccc(C(=O)NC4CC4)cn23)CC1`, the cytotoxicity at 70.5 h was 11.8%.
On to `CCCn1ncc(-c2ccnc(NC3CCCc4ccccc43)n2)c1C` (stereo not given), for which the cytotoxicity at 70.5 h amounted to 55.9%.
As for `CN(C)[C@@H]1CCN(C(=O)c2ccccn2)[C@H]1Cc1cnn(C)c1`, the cytotoxicity at 70.5 h is -5.7%.
As for `Nc1nccnc1C(=O)N1CCN(Cc2cccc3ccccc23)CC1`, the cytotoxicity at 70.5 h turned out to be 28%.
Regarding `Cc1occc1C(=O)N1CCCN(Cc2nccn2C(C)C)CC1`, the cytotoxicity at 70.5 h worked out at 20.3%.
As for `COc1c(F)cc(NC(=O)NCc2nncn2C2CC2)cc1F`, the figure is 0.912%; as for `COc1ccccc1C(NCc1ccc(SC)cc1)c1nccn1C` (stereo not given), 11.2%; as for `Fc1cnc(N2CCc3nnc(COc4ccccn4)n3CC2)nc1`, -3.38%.
In the case of `Nc1ccc(-c2cnc(C3CCCN3)cn2)cn1` (stereo not given), the cytotoxicity at 70.5 h was -8.2%.
Regarding `COc1c(CNC2CCCc3ccccc32)c(C(C)C)nn1C` (stereo not given), the cytotoxicity at 70.5 h turned out to be 9.34%.
Regarding `Cn1ncc2c(NCC3CCS(=O)(=O)C3)nc(-c3ccncc3)nc21` (stereo not given), the cytotoxicity at 70.5 h turned out to be 21.3%.
Take `COc1ccccc1OCCC(=O)N1CCCC1Cn1cccn1` (stereo not given): the cytotoxicity at 70.5 h amounted to 2.97%.
Next, `Cc1nc(C)n(CC2CCCCN2CCCN2CCCC2=O)n1` (stereo not given): 33.6%; `CC(C)N1CCC(C(=O)N(C)C(C)c2ccon2)CC1` (stereo not given): -0.598%; `CC(C)c1nccc(-c2nccn2CCN(C)S(C)(=O)=O)n1`: 19%.
On to `CN1CCC(c2cnc(NCc3nccn3C)cn2)CC1`, for which the cytotoxicity at 70.5 h was determined as 17.9%.
Consider `COc1cc2c(cc1OC)C(=O)C(Sc1nncn1C)C2` (stereo not given), for which the cytotoxicity at 70.5 h is -4.34%.
Consider `Cc1nc(C)c(-c2nnc(SCC(=O)O)n2C(C)c2ccccc2)o1` (stereo not given), for which the cytotoxicity at 70.5 h was -2.71%.
As for `CCOc1ccc(CCCC(=O)N2CCC(C(=O)NC)C2)cc1C` (stereo not given), the figure is -8.84%.
Next, `NS(=O)(=O)Cc1ccc(CNc2cncc(-n3cccn3)n2)cc1`: -14%; `CC(=O)Nc1ccc(CNC(C)c2c(C)nn(C)c2C)cc1` (stereo not given): 13.1%.
Take `COc1cc(C(=O)Nc2nc(C)no2)ccc1OC(F)F`: the cytotoxicity at 70.5 h amounted to 2.82%.
As to `COc1ccc(OC)c(CN(C)c2nc3c(cnn3C)c(=O)[nH]2)c1`, the cytotoxicity at 70.5 h came out at 42.4%.
As to `CCn1cnnc1C1CCN(C(=O)c2ccccc2F)CC1`, the cytotoxicity at 70.5 h was -7.26%.
`Cc1cc(Nc2ccc3c(c2)CC(=O)N3)nc(C2CC2)n1`: the cytotoxicity at 70.5 h was -9.05%.
For the compound `CN(C)C(=O)N1CCC2(CC1)C(=O)N(CC1CCOC1)c1ccccc12` (stereo not given), the cytotoxicity at 70.5 h was -9.22%.
Next, `CCOCc1nc2c(c(NC(CC)c3ccnn3C)n1)CCNCC2` (stereo not given): 0.295%; `CC1c2ncc(COCC3CC3)n2CCN1C(=O)c1ccnnc1` (stereo not given): -5.45%.
On to `CN1CC(=O)N(c2cccnc2)CC12CCN(C(=O)c1cccn1C)C2` (stereo not given), for which the cytotoxicity at 70.5 h worked out at 1.98%.
Next, `COCc1ncn2c1CN(C(=O)c1ccc[nH]1)CC2`: -4.65%.
